According to ChEMBL document CHEMBL5625277, “Systematical mutational analysis of teriparatide on anti-osteoporosis activity by alanine scanning” (Bioorg Med Chem Lett, 2024):
Active and inactive are the calls of the source. No cut-off for these calls is given here.

Assays:
[1] = Cytotoxicity in pre-osteoblasts (unknown origin) assessed as cell death upto 5 uM by CCK8 assay; type: toxicity, cell-based; details: pre-osteoblast
[2] = test system: Skull progenitor cell; experiment: Induction of osteoblast differentiation in mouse skull progenitor cells assessed as increase in purple-stained ALP-positive cells at 100 nM measured after 4 days by imaging analysis; type: functional, cell-based; details: time 4.0 day
[3] = test system: Calvarial osteoblast; experiment: Induction of mineralization in osteoblast assessed as formation of calcium nodules at 50 to 100 nM measured after 14 days by Alizarin Red S staining based analysis; type: functional, cell-based; details: dose 50-100 nM, time 14.0 day

In the case of `CC[C@H](C)[C@H](NC(=O)[C@H](CCC(=O)O)NC(=O)[C@H](CO)NC(=O)[C@@H](NC(=O)[C@H](CO)NC(C)=O)C(C)C)C(=O)N[C@@H](CCC(N)=O)C(=O)N[C@@H](CC(C)C)C(=O)N[C@@H](CCSC)C(=O)N[C@@H](Cc1cnc[nH]1)C(=O)N[C@@H](CC(N)=O)C(=O)N[C@@H](CC(C)C)C(=O)NCC(=O)N[C@@H](CCCCN)C(=O)N[C@@H](Cc1cnc[nH]1)C(=O)N[C@@H](CC(C)C)C(=O)N[C@@H](CC(N)=O)C(=O)N[C@@H](CO)C(=O)N[C@@H](CCSC)C(=O)N[C@@H](CCC(=O)O)C(=O)N[C@@H](CCCNC(=N)N)C(=O)N[C@H](C(=O)N[C@@H](CCC(=O)O)C(=O)N[C@@H](Cc1c[nH]c2ccccc12)C(=O)N[C@@H](CC(C)C)C(=O)N[C@@H](CCCNC(=N)N)C(=O)N[C@@H](CCCCN)C(=O)N[C@@H](CCCCN)C(=O)N[C@@H](CC(C)C)C(=O)N[C@@H](CCC(N)=O)C(=O)N[C@@H](C)C(=O)N[C@H](C(=O)N[C@@H](Cc1cnc[nH]1)C(=O)N[C@@H](CC(N)=O)C(=O)N[C@@H](Cc1ccccc1)C(N)=O)C(C)C)C(C)C`, the Activity [1] is reported as “Non-Toxic”, the Activity [2] is reported as “Active” and the Activity [3] is reported as “Active”.

In the case of `CC[C@H](C)[C@H](NC(=O)[C@H](CCC(=O)O)NC(=O)[C@H](CO)NC(=O)[C@@H](NC(=O)[C@H](CO)NC(C)=O)C(C)C)C(=O)N[C@@H](CCC(N)=O)C(=O)N[C@@H](CC(C)C)C(=O)N[C@@H](CCSC)C(=O)N[C@@H](Cc1cnc[nH]1)C(=O)N[C@@H](CC(N)=O)C(=O)N[C@@H](CC(C)C)C(=O)NCC(=O)N[C@@H](C)C(=O)N[C@@H](Cc1cnc[nH]1)C(=O)N[C@@H](CC(C)C)C(=O)N[C@@H](CC(N)=O)C(=O)N[C@@H](CO)C(=O)N[C@@H](CCSC)C(=O)N[C@@H](CCC(=O)O)C(=O)N[C@@H](CCCNC(=N)N)C(=O)N[C@H](C(=O)N[C@@H](CCC(=O)O)C(=O)N[C@@H](Cc1c[nH]c2ccccc12)C(=O)N[C@@H](CC(C)C)C(=O)N[C@@H](CCCNC(=N)N)C(=O)N[C@@H](CCCCN)C(=O)N[C@@H](CCCCN)C(=O)N[C@@H](CC(C)C)C(=O)N[C@@H](CCC(N)=O)C(=O)N[C@@H](CC(=O)O)C(=O)N[C@H](C(=O)N[C@@H](Cc1cnc[nH]1)C(=O)N[C@@H](CC(N)=O)C(=O)N[C@@H](Cc1ccccc1)C(N)=O)C(C)C)C(C)C`, the Activity [1] is reported as “Non-Toxic”, the Activity [2] is reported as “Active” and the Activity [3] is reported as “Active”.

For `CC[C@H](C)[C@H](NC(=O)[C@H](CCC(=O)O)NC(=O)[C@H](CO)NC(=O)[C@@H](NC(=O)[C@H](CO)NC(C)=O)C(C)C)C(=O)N[C@@H](CCC(N)=O)C(=O)N[C@@H](CC(C)C)C(=O)N[C@@H](CCSC)C(=O)N[C@@H](Cc1cnc[nH]1)C(=O)N[C@@H](CC(N)=O)C(=O)N[C@@H](CC(C)C)C(=O)NCC(=O)N[C@@H](CCCCN)C(=O)N[C@@H](Cc1cnc[nH]1)C(=O)N[C@@H](CC(C)C)C(=O)N[C@@H](CC(N)=O)C(=O)N[C@@H](CO)C(=O)N[C@@H](CCSC)C(=O)N[C@@H](CCC(=O)O)C(=O)N[C@@H](CCCNC(=N)N)C(=O)N[C@H](C(=O)N[C@@H](CCC(=O)O)C(=O)N[C@@H](Cc1c[nH]c2ccccc12)C(=O)N[C@@H](CC(C)C)C(=O)N[C@@H](CCCNC(=N)N)C(=O)N[C@@H](CCCCN)C(=O)N[C@@H](CCCCN)C(=O)N[C@@H](CC(C)C)C(=O)N[C@@H](CCC(N)=O)C(=O)N[C@@H](CC(=O)O)C(=O)N[C@H](C(=O)N[C@@H](C)C(=O)N[C@@H](CC(N)=O)C(=O)N[C@@H](Cc1ccccc1)C(N)=O)C(C)C)C(C)C`, the Activity [1] was “Non-Toxic”.

With `CC[C@H](C)[C@H](NC(=O)[C@H](CCC(=O)O)NC(=O)[C@H](CO)NC(=O)[C@@H](NC(=O)[C@H](CO)NC(C)=O)C(C)C)C(=O)N[C@@H](CCC(N)=O)C(=O)N[C@@H](CC(C)C)C(=O)N[C@@H](CCSC)C(=O)N[C@@H](Cc1cnc[nH]1)C(=O)N[C@@H](CC(N)=O)C(=O)N[C@@H](CC(C)C)C(=O)N[C@@H](C)C(=O)N[C@@H](CCCCN)C(=O)N[C@@H](Cc1cnc[nH]1)C(=O)N[C@@H](CC(C)C)C(=O)N[C@@H](CC(N)=O)C(=O)N[C@@H](CO)C(=O)N[C@@H](CCSC)C(=O)N[C@@H](CCC(=O)O)C(=O)N[C@@H](CCCNC(=N)N)C(=O)N[C@H](C(=O)N[C@@H](CCC(=O)O)C(=O)N[C@@H](Cc1c[nH]c2ccccc12)C(=O)N[C@@H](CC(C)C)C(=O)N[C@@H](CCCNC(=N)N)C(=O)N[C@@H](CCCCN)C(=O)N[C@@H](CCCCN)C(=O)N[C@@H](CC(C)C)C(=O)N[C@@H](CCC(N)=O)C(=O)N[C@@H](CC(=O)O)C(=O)N[C@H](C(=O)N[C@@H](Cc1cnc[nH]1)C(=O)N[C@@H](CC(N)=O)C(=O)N[C@@H](Cc1ccccc1)C(N)=O)C(C)C)C(C)C` the Activity [1] was “Non-Toxic”.

For `CC[C@H](C)[C@H](NC(=O)[C@H](CCC(=O)O)NC(=O)[C@H](CO)NC(=O)[C@@H](NC(=O)[C@H](CO)NC(C)=O)C(C)C)C(=O)N[C@@H](CCC(N)=O)C(=O)N[C@@H](CC(C)C)C(=O)N[C@@H](CCSC)C(=O)N[C@@H](Cc1cnc[nH]1)C(=O)N[C@@H](CC(N)=O)C(=O)N[C@@H](CC(C)C)C(=O)NCC(=O)N[C@@H](CCCCN)C(=O)N[C@@H](Cc1cnc[nH]1)C(=O)N[C@@H](CC(C)C)C(=O)N[C@@H](CC(N)=O)C(=O)N[C@@H](CO)C(=O)N[C@@H](CCSC)C(=O)N[C@@H](CCC(=O)O)C(=O)N[C@@H](CCCNC(=N)N)C(=O)N[C@H](C(=O)N[C@@H](CCC(=O)O)C(=O)N[C@@H](Cc1c[nH]c2ccccc12)C(=O)N[C@@H](CC(C)C)C(=O)N[C@@H](C)C(=O)N[C@@H](CCCCN)C(=O)N[C@@H](CCCCN)C(=O)N[C@@H](CC(C)C)C(=O)N[C@@H](CCC(N)=O)C(=O)N[C@@H](CC(=O)O)C(=O)N[C@H](C(=O)N[C@@H](Cc1cnc[nH]1)C(=O)N[C@@H](CC(N)=O)C(=O)N[C@@H](Cc1ccccc1)C(N)=O)C(C)C)C(C)C`, the Activity [1] was “Non-Toxic”.
